“Also recorded” adds a separate entry of the source. Where a SMILES comes first, the peptide text is derived from it. Bridges are numbered along the chain shown (N, C = ends). [ ]: non-standard residue; d: D form. hArg = N=C(N)NCCCC[C@H](N)C(=O)O; Mpa = O=C(O)CCS

Data set [1] relates to platelets in platelet-rich plasma (PRP). Nature of the data set: Transmission light aggregometry of platelets in PRP with antiplatelet agents. It is filed as cell-based, human. As for the experimental part: Plasma samples with platelet or FDPDs or combination of both are loaded into cuvettes and placed into the aggregometry chambers. The chambers warm the sample and provide constant stirring. The initiation of aggregation can be done by multiple types of […] agents not limited to thrombin, ADP, collagen and any agent know to stimulate platelet aggregation. […] The instrument begins the assay by first recording the light transmission previous to stimulation for 2 minutes. The stimulant of interest is then introduced by the technician and the change in light transmission is recorded overtime. The increase in light transmission corresponds to increase in platelet aggregation.

Data set [2] has as its system thrombin generation. Nature of the data set: Thrombin generation assay (TGA). It is filed as biochemical, human. As to conditions: PPP from patients taking baby aspirin daily; absence of FDPDs.
The conditions of data set [3]: same 500 mg dose orally; cited from earlier work.
The subject of data set [4] is whole blood. Nature of the data set: T-TAS PL chip (collagen only) thrombus formation, whole blood. It is filed as cell-based, human. To be noted: 100 and 500 μM aspirin. The source says: Platelets will aggregate with collagen and arachidonic acid stimulation. […] The PL chip system on the T-TAS® was used to emulate in vitro platelet binding and aggregation due to the exposure of collagen in the vasculature under shear conditions.
PL chips are run similarly to AR chips but this chip is only coated with collagen alone.

For data set [5], the system named is platelet rich plasma. Nature of the data set: T-TAS AR chip (collagen and tissue factor) occlusion, platelet rich plasma. Type of data set: cell-based, human.
Data set [6] concerns platelet rich plasma. The description is as above. Type of data set: cell-based, human. To be noted: for occlusion time of ADP stimulated PRP: ADP 2 μM, cangrelor 1 μM (n=4) or ticagrelor 500 ng/mL (n=5). On the procedure: The effect of cangrelor on platelet occlusion under shear was evaluated by T-TAS®.
Evaluation by T-TAS® using an AR chip. AR chips are characterized by a single channel containing collagen and tissue factor; they can be used to analyze clotting and platelet function.

In data set [7] the test system is platelet function. To be noted: in vivo; cited from earlier work.
The test system of data set [8] is whole blood. The data set is described as follows: T-TAS AR chip occlusion, whole blood. Type of data set: cell-based, human. To be noted: 6 μM eptifibatide. From the text:
The effect of FDPDs on shortening clotting times while in the presence of eptifibatide was also studied. The ability of FDPDs to recover occlusion times was studied on the T-TAS® system. The T-TAS® system measures occlusion time under shear forces with collagen and thromboplastin stimulation. The whole blood profile of occlusion and AUC on the AR T-TAS® chip lengthened and decreased, respectively, with eptifibatide. Eptifibatide extended the occlusion time of whole blood on the T-TAS® AR Chip in a dose-dependent manner. In this experiment, whole blood occluded at 8 minutes, and the occlusion time was extended to 16 minutes with 6 μM eptifibatide (FIG. 9). FDPDs reversed the inhibitory effect of eptifibatide on thrombus formation. Eptifibatide inhibition of whole blood occlusion on the T-TAS® AR Chip was reversed by the addition of FDPDs at approximately 200,000/μL (N=3). When FDPDs (approximately 200 k/μL) were added to the sample of whole blood inhibited with eptifibatide, the time to occlusion decreased to ‘normal’ at 9 minutes (FIG. 10).
Evaluation by T-TAS® using an AR chip. […]
Occlusion time was measured on the Total […] formation Analysis System (T-TAS®) 01 using AR chips (Collagen and Tissue FactorF stimulant). […] FDPDS were rehydrated, counted (Beckman Coulter AcT Diff 2 Cell Counter), and added to whole blood at the indicated final concentration. […]

The test system of data set [9] is pooled normal plasma. Nature of the data set: Activated clotting time (ACT) in pooled normal plasma with heparin and protamine. Type of data set: biochemical, human. As to conditions: heparin titration. On the procedure:
This experiment assessed how clinical proportions of Heparin and Protamine affect FDPD function. FDPDs were prepared according to the procedure in Example 15. An Activating Clotting Time (ACT) assay was performed to measure time to clot and TGA was performed to measure thrombin generation. An initial Heparin titration run was performed using ACT to find the minimum Heparin dose needed to reach abnormal clot time.
Activated clotting time was measured using pooled normal plasma with heparin (H) and protamine (P) as labeled on the x-axis; ½ P, P, and 3/2 P represent protamine doses of 4, 8, and 12 μg/ml, respectively. FDPDs, (referred to as “Tsomes” in FIG. 40) were added at 10, 25 or 50 K/μl. […] “K” in the legend stands for 10^3 FDPDS. All samples were run in duplicate. N=2. The experiment was repeated on separate days to improve statistical relevance.

Setting [10] is: cangrelor 1 μM combined with ADP 10 μM.

For `CC(=O)Oc1ccccc1C(=O)O` [aspirin, acetylsalicylic acid], in data set [1] (AA 500 ug/mL, aspirin 100-400 μM), the “arachidonic acid induced platelet aggregation in PRP” value is “eliminated arachidonic acid induced platelet aggregation entirely”. In addition, the “collagen stimulated platelet aggregation in PRP” value in data set [1] (collagen 10 ug/mL, aspirin 100-400 μM) is given as “partially inhibited”. In [2], the peak thrombin entry was “about 45 nM”. Besides, the peak concentration in [3] is 44 µM. Further, the “platelet binding and aggregation on collagen under shear” value in data set [4] was “largely limited”. In addition, in data set [5] (PRP 30K/μL), the “occlusion time of PRP” value was more than 30 min. Besides, the “occlusion of PRP taken from an aspirin patient” value in data set [5] (ex vivo, subject on 81 mg/day of aspirin) is given as “failed to occlude”.
As for `CSCCNc1nc(SCCC(F)(F)F)nc2c1ncn2[C@@H]1O[C@H](COP(=O)(O)OP(=O)(O)C(Cl)(Cl)P(=O)(O)O)[C@@H](O)[C@H]1O` [cangrelor], in data set [1] (10 μM ADP, cangrelor 0.5 μM-3.5 μM), the “ADP-induced platelet aggregation in PRP” value is on record as “complete inhibition”. Besides, in data set [6] (100 ng/mL cangrelor and ADP), the “occlusion time of PRP” value is 26 min. The “occlusion time of ADP stimulated PRP” value in data set [6] amounted to 28.0 ± 3.0 min. In [6] (setting [10]), the “area under the curve (AUC) of PRP” value is on record as “dropped close to zero”; the “platelet adhesion and occlusion of PRP” value is given as “essentially eliminated; also recorded: inhibited occlusion essentially completely”. Besides, in [6] (cangrelor alone 1 μM), the “area under the curve (AUC) of PRP” value is listed as “little effect” and the “occlusion / occlusion time of PRP” value is on record as “did not exhibit inhibition; also recorded: little effect”.
`COC(=O)[C@H](c1ccccc1Cl)N1CCc2sccc2C1` [clopidogrel]: the “time until platelet function is returned after stopping infusion” value in data set [7] is reported as “approximately 1 hour”.
On to `N=C(N)NCCCC[C@@H]1NC(=O)CCSSC[C@@H](C(N)=O)NC(=O)[C@@H]2CCCN2C(=O)[C@H](Cc2c[nH]c3ccccc23)NC(=O)[C@H](CC(=O)O)NC(=O)CNC1=O` [eptifibatide] ([Mpa][hArg]GDWPC-NH2; disulfide 1-7), for which, in data set [1] (collagen 10 μg/mL, all eptifibatide concentrations tested), the “collagen-induced platelet aggregation in PRP” value is on record as “completely inhibited”. In addition, the “occlusion time of whole blood” value in data set [8] is 16 min. The “time for bleeding time to return to normal after drug stoppage” value in data set [7] is not above 1 h. In addition, the “occlusion time of PRP” value in [5] (9 μM eptifibatide) is “over 30 minutes”.
`CC(C)Cc1ccc(C(C)C(=O)O)cc1` (centres unmarked) [ibuprofen]: the “aggregation in response to arachidonic acid” value in data set [1] (PRP from subject on 800 mg ibuprofen) is “lack of aggregation”. Further, the results for the “occlusion of PRP from ibuprofen patient” value in data set [5] (addition of ADP) and in data set [5] (subject on 800 mg ibuprofen) were “abolished occlusion” and “demonstrated occlusion”, respectively.
`CCCSc1nc(N[C@@H]2C[C@H]2c2ccc(F)c(F)c2)c2nnn([C@@H]3C[C@H](OCCO)[C@@H](O)[C@H]3O)c2n1` [ticagrelor]: in data set [7], the “time until platelet function can return after the last dosage” value is “approximately 72 hours”. For the same compound, the “occlusion time of ADP stimulated PRP” value in data set [6] was determined as 28.0 ± 3.0 min.
On to `CCCCS(=O)(=O)N[C@@H](Cc1ccc(OCCCCC2CCNCC2)cc1)C(=O)O` [tirofiban], for which the “occlusion time of PRP” value in data set [5] (100 ng/mL tirofiban) was “no occlusion”.
On to heparin, for which the “minimum Heparin dose needed to reach abnormal clot formation” value in data set [9] is 0.8 U/mL.
